Experimental data from paper PMC4836378 (Journal of medicinal chemistry, 2016).
Like-named read-outs stand apart in the source and are kept apart here. One block for each molecule: values may come before it.

Experiments:
CYP26A1 = target: T1, CYP26A1 (Homo sapiens, UniProt O43174); assay: CYP26A1 inhibition assay; conditions: for Selectivity towards CYP26A1 compared to CYP26B1 (ratio of IC50): CYP26B1 IC50 versus CYP26A1 IC50
T1 sequence (O43174 1-497): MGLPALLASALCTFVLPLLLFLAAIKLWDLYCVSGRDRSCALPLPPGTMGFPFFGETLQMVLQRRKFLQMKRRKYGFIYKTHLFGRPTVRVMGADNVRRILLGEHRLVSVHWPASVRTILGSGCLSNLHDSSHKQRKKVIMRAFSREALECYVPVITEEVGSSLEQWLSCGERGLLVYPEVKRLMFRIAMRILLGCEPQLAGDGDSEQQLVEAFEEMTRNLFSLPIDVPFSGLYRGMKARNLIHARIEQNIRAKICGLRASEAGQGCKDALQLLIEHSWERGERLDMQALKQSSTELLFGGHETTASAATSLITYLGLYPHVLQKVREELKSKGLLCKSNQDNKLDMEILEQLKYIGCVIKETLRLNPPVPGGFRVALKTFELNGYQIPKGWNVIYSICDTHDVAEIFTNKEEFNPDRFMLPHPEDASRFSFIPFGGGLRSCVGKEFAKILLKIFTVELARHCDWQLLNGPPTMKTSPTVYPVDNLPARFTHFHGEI

human RARα = target: T2, human RARα (Homo sapiens, UniProt P10276); assay: Luciferase-based RARα reporter assay; assay type: cell-based; conditions: 1 μM compound, data not shown
T2 sequence (P10276 1-462): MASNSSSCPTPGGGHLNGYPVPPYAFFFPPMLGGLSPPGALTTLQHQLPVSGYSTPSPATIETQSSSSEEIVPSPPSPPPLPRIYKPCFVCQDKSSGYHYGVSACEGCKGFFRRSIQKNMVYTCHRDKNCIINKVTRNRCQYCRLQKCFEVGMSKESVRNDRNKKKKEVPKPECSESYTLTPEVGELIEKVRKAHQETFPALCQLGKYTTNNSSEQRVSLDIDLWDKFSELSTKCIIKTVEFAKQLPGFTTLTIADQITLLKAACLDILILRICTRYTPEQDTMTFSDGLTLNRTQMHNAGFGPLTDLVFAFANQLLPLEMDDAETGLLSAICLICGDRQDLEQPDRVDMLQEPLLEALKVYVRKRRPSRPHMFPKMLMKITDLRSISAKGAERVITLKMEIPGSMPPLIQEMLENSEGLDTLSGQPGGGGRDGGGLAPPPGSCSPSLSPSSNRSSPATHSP

human RARγ = target: T3, human RARγ (Homo sapiens, UniProt P13631); assay: Luciferase-based RARγ reporter assay; assay type: cell-based; conditions: 1 μM compound, data not shown
T3 sequence (P13631 1-454): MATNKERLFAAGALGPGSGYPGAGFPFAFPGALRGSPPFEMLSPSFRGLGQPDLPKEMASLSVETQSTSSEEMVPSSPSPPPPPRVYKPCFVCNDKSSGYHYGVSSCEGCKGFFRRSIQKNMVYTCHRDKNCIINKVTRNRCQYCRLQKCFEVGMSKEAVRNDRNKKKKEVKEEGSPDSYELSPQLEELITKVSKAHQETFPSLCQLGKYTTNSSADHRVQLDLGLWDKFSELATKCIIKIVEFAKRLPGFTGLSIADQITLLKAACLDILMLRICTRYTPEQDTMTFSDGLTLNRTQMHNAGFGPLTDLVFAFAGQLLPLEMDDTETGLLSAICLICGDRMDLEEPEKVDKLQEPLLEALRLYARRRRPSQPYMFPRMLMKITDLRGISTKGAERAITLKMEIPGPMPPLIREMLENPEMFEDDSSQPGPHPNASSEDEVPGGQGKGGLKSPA

RARs in HepG2 cells = assay: Induction of RARβ and CYP26A1 mRNA in HepG2 cells; assay type: cell-based, human; conditions: for RAR antagonistic activity: 100 nM atRA + 1 μM compound; for Magnitude of induction of RARβ and CYP26A1 mRNA compared to atRA treatment alone: 100 nM atRA in combination with 1 μM compound; for Activation of RARs (induction of CYP26A1 and RARβ mRNA): 1 μM compound alone, 24 hours, versus vehicle and atRA
CYP3A4 = CYP3A4 (Homo sapiens, UniProt P08684); assay: CYP3A4 inhibition in human liver microsomes; assay type: in vitro ADME; conditions: midazolam; for Percent inhibition of CYP3A4: 10 μM inhibitor, 10 µM
CYP2D6 = CYP2D6 (Homo sapiens, UniProt P10635); assay: CYP2D6 inhibition in human liver microsomes; assay type: in vitro ADME
[1] = tested on: atRA metabolism in HepG2 cells; conditions: HepG2, 24 hour treatment
CYP26B1 = target: T4, CYP26B1 (Homo sapiens, UniProt Q9NR63); assay: CYP26B1 inhibition assay
T4 sequence (Q9NR63 1-512): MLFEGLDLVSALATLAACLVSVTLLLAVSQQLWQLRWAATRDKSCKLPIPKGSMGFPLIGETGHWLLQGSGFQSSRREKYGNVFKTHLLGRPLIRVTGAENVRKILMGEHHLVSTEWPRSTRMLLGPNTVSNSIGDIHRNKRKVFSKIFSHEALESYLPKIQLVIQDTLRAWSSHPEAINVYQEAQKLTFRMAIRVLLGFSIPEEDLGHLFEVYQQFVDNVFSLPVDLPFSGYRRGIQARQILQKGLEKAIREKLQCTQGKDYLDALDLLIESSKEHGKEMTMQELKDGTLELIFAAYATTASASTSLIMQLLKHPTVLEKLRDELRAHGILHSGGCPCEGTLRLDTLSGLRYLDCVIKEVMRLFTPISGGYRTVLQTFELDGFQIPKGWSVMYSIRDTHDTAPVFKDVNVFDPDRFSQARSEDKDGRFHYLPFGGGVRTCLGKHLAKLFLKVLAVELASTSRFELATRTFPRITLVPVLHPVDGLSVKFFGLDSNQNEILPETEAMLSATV

CYP2C19 = CYP2C19 (Homo sapiens, UniProt P33261); assay: CYP2C19 inhibition in human liver microsomes; assay type: in vitro ADME; conditions: 10 μM inhibitor, (S)-mephenytoin
CYP2B6 = target: T5, CYP2B6 (Homo sapiens, UniProt P20813); assay: CYP2B6 inhibition in human liver microsomes; assay type: in vitro ADME; conditions: 10 μM inhibitor, bupropion
T5 sequence (P20813 1-491): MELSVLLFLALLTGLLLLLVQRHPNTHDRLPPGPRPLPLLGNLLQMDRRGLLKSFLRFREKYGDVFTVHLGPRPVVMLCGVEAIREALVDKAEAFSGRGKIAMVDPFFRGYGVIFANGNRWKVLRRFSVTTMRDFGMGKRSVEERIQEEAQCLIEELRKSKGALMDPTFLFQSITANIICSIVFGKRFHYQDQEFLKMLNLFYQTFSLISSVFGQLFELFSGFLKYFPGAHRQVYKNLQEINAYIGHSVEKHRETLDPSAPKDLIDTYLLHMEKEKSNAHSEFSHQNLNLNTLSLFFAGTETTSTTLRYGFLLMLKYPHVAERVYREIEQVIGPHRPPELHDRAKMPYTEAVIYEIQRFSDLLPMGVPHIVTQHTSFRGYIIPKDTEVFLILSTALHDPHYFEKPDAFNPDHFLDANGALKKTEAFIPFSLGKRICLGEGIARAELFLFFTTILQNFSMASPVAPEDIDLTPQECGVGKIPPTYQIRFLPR

[2] = substrate: CC1=C(/C=C/C(C)=C\C=C\C(C)=C\C(=O)O)C(C)(C)CCC1; assay: cells, lysate or membranes named; conditions: other: recombinant CYP26B1, 50-1000 nM 9-cis-RA; pH 7.4; 37.0 °C

Chain of CYP3A4 (P08684 whole entry): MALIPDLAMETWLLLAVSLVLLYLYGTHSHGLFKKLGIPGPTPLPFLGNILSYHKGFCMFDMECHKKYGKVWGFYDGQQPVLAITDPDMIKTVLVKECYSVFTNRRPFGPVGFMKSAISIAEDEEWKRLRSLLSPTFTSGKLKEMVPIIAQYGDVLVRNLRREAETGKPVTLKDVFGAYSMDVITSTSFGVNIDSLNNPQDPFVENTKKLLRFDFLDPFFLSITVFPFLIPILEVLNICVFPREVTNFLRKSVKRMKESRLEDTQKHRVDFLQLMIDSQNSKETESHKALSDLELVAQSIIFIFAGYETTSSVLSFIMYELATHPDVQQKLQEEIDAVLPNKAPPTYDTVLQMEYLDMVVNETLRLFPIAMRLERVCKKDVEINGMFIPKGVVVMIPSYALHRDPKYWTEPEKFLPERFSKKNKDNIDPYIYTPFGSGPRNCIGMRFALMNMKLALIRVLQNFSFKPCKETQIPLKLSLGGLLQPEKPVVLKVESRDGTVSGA
Chain of CYP2D6 (P10635 whole entry): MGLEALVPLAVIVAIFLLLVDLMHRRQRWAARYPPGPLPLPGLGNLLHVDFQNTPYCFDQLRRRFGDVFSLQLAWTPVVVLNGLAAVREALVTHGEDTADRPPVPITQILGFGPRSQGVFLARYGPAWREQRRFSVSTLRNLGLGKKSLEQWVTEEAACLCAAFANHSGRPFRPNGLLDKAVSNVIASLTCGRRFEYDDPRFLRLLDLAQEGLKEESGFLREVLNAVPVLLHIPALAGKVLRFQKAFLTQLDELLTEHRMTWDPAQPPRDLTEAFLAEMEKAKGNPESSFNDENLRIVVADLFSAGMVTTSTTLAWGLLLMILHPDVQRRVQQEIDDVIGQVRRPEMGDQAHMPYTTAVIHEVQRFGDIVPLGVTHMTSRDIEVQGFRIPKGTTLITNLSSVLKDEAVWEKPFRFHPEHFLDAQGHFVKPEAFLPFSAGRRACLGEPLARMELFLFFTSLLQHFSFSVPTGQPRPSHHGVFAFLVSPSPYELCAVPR
Chain of CYP2C19 (P33261 whole entry): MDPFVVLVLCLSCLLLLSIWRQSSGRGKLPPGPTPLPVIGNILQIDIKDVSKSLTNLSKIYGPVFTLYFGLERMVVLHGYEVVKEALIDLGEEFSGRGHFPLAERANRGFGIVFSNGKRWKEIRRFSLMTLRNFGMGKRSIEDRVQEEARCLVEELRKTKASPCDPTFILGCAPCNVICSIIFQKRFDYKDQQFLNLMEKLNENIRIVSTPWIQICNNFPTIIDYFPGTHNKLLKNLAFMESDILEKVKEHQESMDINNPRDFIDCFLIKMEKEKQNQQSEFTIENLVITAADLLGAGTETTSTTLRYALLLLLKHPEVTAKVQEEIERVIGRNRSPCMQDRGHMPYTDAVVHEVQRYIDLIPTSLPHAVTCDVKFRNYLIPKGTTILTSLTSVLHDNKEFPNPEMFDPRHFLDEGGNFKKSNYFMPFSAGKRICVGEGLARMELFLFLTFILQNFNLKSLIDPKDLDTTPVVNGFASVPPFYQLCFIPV

- Selectivity towards CYP26A1 compared to CYP26B1 (ratio of IC50) (CYP26A1): 10–20 fold
Molecule: CC1(C)CCC(C)(C)c2cc(C3(c4ccc5cc(C(=O)O)ccc5c4)OCCO3)ccc21 [Compound 13b, 6-(2-(5,5,8,8-Tetramethyl-5,6,7,8-tetrahydronaphthalen-2-yl)-1,3-dioxolan-2-yl)-2-naphthoic acid]

- Percent inhibition of CYP3A4 (CYP3A4): free of any CYP3A4 inhibition
- inhibition at 10 µM (CYP2D6; human, probe dextromethorphan): 50%
Molecule: CC1(C)CCC(C)(C)c2cc(C3(c4ccc(/C=C/C(=O)O)cc4)OCCO3)ccc21 [Compound 22, (E)-3-(4-(2-(5,5,8,8-Tetramethyl-5,6,7,8-tetrahydronaphthalen-2-yl)-1,3-dioxolan-2-yl)phenyl)-acrylic acid]
- RARα activation (human RARα): No measurable RARα and RARγ activation was detected
- RARγ activation (human RARγ): No measurable RARα and RARγ activation was detected
- RAR antagonistic activity (RARs in HepG2 cells): do not exhibit an RAR antagonistic activity
- Magnitude of induction of RARβ and CYP26A1 mRNA compared to atRA treatment alone (RARs in HepG2 cells): significantly increased
- Activation of RARs (induction of CYP26A1 and RARβ mRNA) (RARs in HepG2 cells): none of the three compounds resulted in activation

Molecule: CC1=C(/C=C/C(C)=C/C=C/C(C)=C/C(=O)O)C(C)(C)CCC1 [atRA, all-trans-retinoic acid]
- atRA in cell media ([1]; 100nM atRA alone): 13.2 ± 0.14 nM
- atRA in cell media ([1]; 1μM atRA alone): 214 ± 13.6 nM

- Selectivity towards CYP26A1 compared to CYP26B1 (ratio of IC50) (CYP26A1): 10–20 fold
Molecule: CC1(C)CCC(C)(C)c2cc(C3(c4ccc5cc(C(=O)O)ccc5c4)SCCS3)ccc21 [Compound 15b, 6-(2-(5,5,8,8-Tetramethyl-5,6,7,8-tetrahydronaphthalen-2-yl)-1,3-dithiolan-2-yl)-2-naphthoic acid]

- Ki (CYP26A1): 5.1 nM
- Ki (CYP26B1): 0.46 nM
Molecule: CCC(CC)C(c1ccc(Nc2nc3ccccc3s2)cc1)n1cncn1 (stereo not shown) [Compound 3, talarozole]

- Percent inhibition of CYP3A4 (CYP3A4): free of any CYP3A4 inhibition
- IC50 for CYP3A4 inhibition (CYP3A4): no concentration dependent inhibition
- Percent inhibition of CYP2D6 (CYP2D6; 10 μM inhibitor, dextromethorphan, 10 µM): free of any significant inhibition
- Percent inhibition of CYP2C19 (CYP2C19): free of any significant inhibition
- Percent inhibition of CYP2B6 (CYP2B6): free of any significant inhibition
Molecule: CC1(C)CCC(C)(C)c2cc(C3(c4ccc(CCC(=O)O)cc4)OCCO3)ccc21 [Compound 24, 3-{4-[2-(5,5,8,8-Tetramethyl-5,6,7,8-tetrahydronaphthalen-2-yl)-1,3-dioxolan-2-yl]phenyl}4 propanoic acid]
- RARα activation (human RARα): No measurable RARα and RARγ activation was detected
- RARγ activation (human RARγ): No measurable RARα and RARγ activation was detected
- RAR antagonistic activity (RARs in HepG2 cells): do not exhibit an RAR antagonistic activity
- Magnitude of induction of RARβ and CYP26A1 mRNA compared to atRA treatment alone (RARs in HepG2 cells): significantly increased
- Activation of RARs (induction of CYP26A1 and RARβ mRNA) (RARs in HepG2 cells): none of the three compounds resulted in activation

B1: CYP26B1 (Homo sapiens) (protein)
chain: MLFEGLDLVSALATLAACLVSVTLLLAVSQQLWQLRWAATRDKSCKLPIPKGSMGFPLIGETGHWLLQGSGFQSSRREKYGNVFKTHLLGRPLIRVTGAENVRKILMGEHHLVSTEWPRSTRMLLGPNTVSNSIGDIHRNKRKVFSKIFSHEALESYLPKIQLVIQDTLRAWSSHPEAINVYQEAQKLTFRMAIRVLLGFSIPEEDLGHLFEVYQQFVDNVFSLPVDLPFSGYRRGIQARQILQKGLEKAIREKLQCTQGKDYLDALDLLIESSKEHGKEMTMQELKDGTLELIFAAYATTASASTSLIMQLLKHPTVLEKLRDELRAHGILHSGGCPCEGTLRLDTLSGLRYLDCVIKEVMRLFTPISGGYRTVLQTFELDGFQIPKGWSVMYSIRDTHDTAPVFKDVNVFDPDRFSQARSEDKDGRFHYLPFGGGVRTCLGKHLAKLFLKVLAVELASTSRFELATRTFPRITLVPVLHPVDGLSVKFFGLDSNQNEILPETEAMLSATV
- Km [2]: 0.555 µM
- kcat [2]: 3.6 pmol/min/pmol P450
